We go through 1 molecule from patent publication US20210371459A1, “DIMERIC PEPTIDE INHIBITORS OF APOPTOSIS PROTEINS” (Hepagene Therapeutics (HK) Limited, priority 2017, published 2021).

pIC50: −log10 of the molar value.

What all share (details): FP, probe AbuRPFK-5FAM, 60 min at 25° C.
The target of one assay is T1, XIAP-BIR3 (Homo sapiens, UniProt P98170).
T1 construct: purchased Reaction Biology APT-11-374
As to the kind of experiment: XIAP-BIR3 fluorescence polarization binding assay. The source says: (§1) IAPs are one main cause of cancer development and may result from overexpression of anti-apoptotic proteins. This protocol establishes three binding assays for XIAP Bir3 domain, cIAP1 and cIAP2 using FP (Fluorescence polarization) technology. The fluorescence probe used is a synthetic peptide conjugated to 5-carboxyfluorescein (AbuRPFK-5FAM). The fluorescence polarization value (mP) was detected by Envision, which was used to reflect the binding degree of protein and fluorescent marker. Reagents and equipment used in the assay are listed below, followed by the protocol.
(§2) • a) Prepare 100 times of the final cpd concentration in appropriate tube and transfer 5 uL compound (“cpd”) to 45 μL 1× reaction buffer with 10% DMSO. • b) The final reference cpd concentration is 10000, 3333.3, 1111.1, 370.4, 123.4, 41.2, 13.7, 4.57, 1.52, 0.51, 0.17 and 0 nM. So the 100 times of the concentration is 1000, 333.3, 111.1, 37.04, 12.34, 4.12, […], 0.15, 0.05, 0.017 and 0 μM. The final test cpds concentration is 3333.3, 1111.1, 370.4, 123.4, 41.2, 13.7, 4.57, 1.52, 0.51, 0.17, 0.057 and 0 nM. So the 100 times of the concentration is 333.3, 111.1, 37.04, 12.34, 4.12, […], 0.15, 0.05, 0.017, 0.0057 and 0 μM • c) Add 8 μL/well each dose enzyme to 384 well microplate (ProxiPlate-384 F Plus, 6008260) using multichannel pipette, prepared in step 2.1.1.2 • d) Centrifuge at 1000 rpm. • e) Add 2 μL/well cpd to 384 well microplate (ProxiPlate-384 F Plus, 6008260) using multichannel pipette, prepared in step a). • f) Centrifuge at 1000 rpm. RT, 15 min. • g) Start the assay by adding 10 uL/well substrate (prepared in step 2.1.1.3) to the same 384 well microplate using multichannel pipette • h) Centrifuge at 1000 rpm. • i) Cover the assay plate and incubate for 60 min at 25° C. • j) Read on Envision 2104 for mP and plot the IC50s with mP values. • k) Data analysis: IC50s were determined based on a non-linear regression analysis of data collected.
On the technique in general: Fluorescence polarisation rises when a labelled molecule tumbles more slowly, as on binding a larger partner.

The next assay concerns the target T2, cIAP1-BIR3 (Homo sapiens, UniProt Q13490).
T2 construct: cIAP1-BIR3; Reaction Biology; APT-11-370; purchased Reaction Biology APT-11-370
The assay is described as follows: cIAP1-BIR3 fluorescence polarization binding assay.
Description: as §1, §2

A further assay has as its target T3, cIAP2-BIR3 (Homo sapiens, UniProt Q13489).
T3 construct: cIAP2-BIR3; Reaction Biology; APT-11-372; purchased Reaction Biology APT-11-372
The assay is described as follows: cIAP2-BIR3 fluorescence polarization binding assay.
Description: as §1, §2

T2 sequence (Q13490 253-363 limits assumed): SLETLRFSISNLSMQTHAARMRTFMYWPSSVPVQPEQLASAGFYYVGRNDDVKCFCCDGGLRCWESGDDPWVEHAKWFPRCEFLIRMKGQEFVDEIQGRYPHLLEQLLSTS
T1 sequence (P98170 241-356 limits assumed): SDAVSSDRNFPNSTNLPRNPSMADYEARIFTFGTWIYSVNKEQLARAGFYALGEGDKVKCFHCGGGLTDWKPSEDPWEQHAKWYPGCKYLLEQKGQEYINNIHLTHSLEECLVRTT
T3 sequence (Q13489 238-349 limits assumed): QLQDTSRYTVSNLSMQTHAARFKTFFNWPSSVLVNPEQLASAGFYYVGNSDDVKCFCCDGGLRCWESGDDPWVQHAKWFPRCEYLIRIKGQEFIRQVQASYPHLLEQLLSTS

For the molecule `CN[C@@H](C)C(=O)N[C@H](C(=O)N1C[C@@H](OCCOCCO[C@H]2C[C@@H](C(=O)N[C@@H]3CCCc4ccccc43)N(C(=O)[C@@H](NC(=O)[C@H](C)NC)C3CCCCC3)C2)C[C@H]1C(=O)N[C@@H]1CCCc2ccccc21)C1CCCCC1` [Compound V, (2S,4S)-1-[(2S)-2-Cyclohexyl-2-[(2S)-2-(methylamino)propanamido]acetyl]-4-[2-(2-[[(3S,5S)-1-[(2S)-2-cyclohexyl-2-[(2S)-2-(methylamino)propanamido]acetyl]-5-[[(1R)-1,2,3,4-tetrahydronaphthalen-1-yl]carbamoyl]pyrrolidin-3-yl]oxy]ethoxy)ethoxy]-N-[(1R)-1,2,3,4-tetrahydronaphthalen-1-yl] pyrrolidine-2-carboxamide], the pIC50 – broadly, the IC50 on a negative log10 scale, so that one unit is a factor of ten – is 7.00 to 8.00 on XIAP-BIR3, 8.00 to 10.00 at cIAP1-BIR3 and 8.00 to 10.00 at cIAP2-BIR3.
